Holding throughout (format): biochemical
Assay [1] addresses PRMT5-MEP50 (Homo sapiens, UniProt O14744). Nature of the assay: PRMT5 assay (3H-SAM flashplate scintillation). The settings on record: PRMT5-MEP50 2.5 nM, histone H4 peptide 100 nM, 3H-SAM 250 nM, 60 min. An outline of the steps:
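PRMT5-MEP50 (2.5 nM final) preincubated 5 min with compound, then reacted 60 min at ambient temperature with 100 nM biotinylated N-acetyl histone H4 peptide and 250 nM 3H-SAM in 20 mM Tris-HCl pH 8.0, 1 mM DTT, 0.01% Tween. Quenched with 15 μM cold SAM; methylated peptide captured on streptavidin flashplates, scintillation counted.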

Assay [2] concerns the target METTL3/METTL14 (Homo sapiens, UniProt Q86U44). In words: METTL3-14 standard enzyme assay (3H-SAM flashplate scintillation). The settings on record: METTL3/METTL14 2.5 nM, RNA 100 nM, 3H-SAM 100 nM, 30 min. Summed up: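 METTL3/METTL14 (2.5 nM final) preincubated 5 min with compound in 20 mM HEPES pH 7.5, 50 mM KCl, 250 μM MgCl2, 1 mM DTT, ambient temperature; started with 100 nM 3′-biotinylated RNA (UCUGGACUAAA) and 100 nM 3H-SAM. After 30 min, quenched with 15 μM cold SAM; methylated RNA captured on streptavidin flashplates and counted by scintillation.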

For assay [3], the target named is METTL1/WDR4 (Homo sapiens, UniProt Q9UBP6). In words: METTL1 assay (3H-SAM flashplate scintillation). Summed up: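 Radiometric methyltransfer by METTL1/WDR4 (6.25 nM f.c., 5 min preincubation) at ambient temperature in HEPES pH 7.5, KCl, MgCl2, DTT; started with 25 nM 3′-biotinylated RNA and 60 nM 3H-SAM, run 20 min, quenched with 15 μM cold SAM. Product captured on streptavidin flashplates (2 h, 25° C), counted by scintillation.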

Assay [4] addresses T1, METTL16 (Homo sapiens, UniProt Q86W50).
T1 sequence (Q86W50 1-562): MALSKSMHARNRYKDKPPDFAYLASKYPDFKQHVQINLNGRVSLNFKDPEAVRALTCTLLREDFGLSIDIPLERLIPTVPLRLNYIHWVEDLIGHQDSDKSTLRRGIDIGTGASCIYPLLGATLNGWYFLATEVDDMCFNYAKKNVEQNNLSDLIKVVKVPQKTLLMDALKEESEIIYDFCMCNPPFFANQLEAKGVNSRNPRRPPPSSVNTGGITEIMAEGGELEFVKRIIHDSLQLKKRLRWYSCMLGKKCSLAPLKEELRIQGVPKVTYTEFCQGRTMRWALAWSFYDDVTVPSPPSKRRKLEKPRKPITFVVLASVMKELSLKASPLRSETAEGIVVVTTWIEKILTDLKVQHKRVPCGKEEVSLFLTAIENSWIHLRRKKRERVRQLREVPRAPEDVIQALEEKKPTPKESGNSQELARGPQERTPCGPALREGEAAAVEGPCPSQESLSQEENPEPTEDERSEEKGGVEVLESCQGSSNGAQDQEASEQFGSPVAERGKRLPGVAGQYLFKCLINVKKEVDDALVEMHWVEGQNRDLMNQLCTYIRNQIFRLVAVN
In words: METTL16 assay (3H-SAM flashplate scintillation). Conditions: METTL16 100 nM, RNA 50 nM, 3H-SAM 200 nM, SAM 800 nM, 20 min. Summed up: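 Radiometric methyltransferase reaction at ambient temperature in 20 mM HEPES pH 7.5, 50 mM KCl, 1 mM DTT, with 100 nM enzyme preincubated 5 min with compound. It was started with 50 nM 3′-biotinylated RNA, 200 nM 3H-SAM plus 800 nM cold SAM, run 20 min, then quenched with excess cold SAM. Product was captured on streptavidin flashplates and scintillation-counted.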

Setting [5] is: METTL1/WDR4 6.25 nM, RNA 25 nM, 3H-SAM 60 nM, 20 min, read-out: METTL1 IC50.

Each structure is given as a SMILES string. Read-outs that look alike come from different tables or passages of the source. Where only a bound is given, the exact number is not on record here.

PRMT5-MEP50, sequence (O14744 whole entry): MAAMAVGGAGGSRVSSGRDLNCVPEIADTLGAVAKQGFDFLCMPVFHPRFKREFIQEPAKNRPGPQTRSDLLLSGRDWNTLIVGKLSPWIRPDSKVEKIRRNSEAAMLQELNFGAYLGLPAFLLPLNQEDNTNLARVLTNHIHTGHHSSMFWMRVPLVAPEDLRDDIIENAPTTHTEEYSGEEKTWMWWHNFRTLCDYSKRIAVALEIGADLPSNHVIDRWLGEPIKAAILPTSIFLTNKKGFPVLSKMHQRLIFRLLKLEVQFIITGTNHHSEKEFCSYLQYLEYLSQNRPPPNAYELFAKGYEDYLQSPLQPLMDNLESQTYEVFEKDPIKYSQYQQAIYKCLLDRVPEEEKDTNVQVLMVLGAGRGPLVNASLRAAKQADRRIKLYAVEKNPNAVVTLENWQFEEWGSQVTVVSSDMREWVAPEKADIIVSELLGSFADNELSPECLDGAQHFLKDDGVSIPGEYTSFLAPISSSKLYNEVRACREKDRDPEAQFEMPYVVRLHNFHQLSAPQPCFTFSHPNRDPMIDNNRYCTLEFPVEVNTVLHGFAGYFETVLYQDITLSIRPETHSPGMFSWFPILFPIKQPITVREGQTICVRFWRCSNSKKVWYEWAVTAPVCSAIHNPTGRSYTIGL
PRMT5-MEP50, sequence (Q9BQA1 whole entry partner): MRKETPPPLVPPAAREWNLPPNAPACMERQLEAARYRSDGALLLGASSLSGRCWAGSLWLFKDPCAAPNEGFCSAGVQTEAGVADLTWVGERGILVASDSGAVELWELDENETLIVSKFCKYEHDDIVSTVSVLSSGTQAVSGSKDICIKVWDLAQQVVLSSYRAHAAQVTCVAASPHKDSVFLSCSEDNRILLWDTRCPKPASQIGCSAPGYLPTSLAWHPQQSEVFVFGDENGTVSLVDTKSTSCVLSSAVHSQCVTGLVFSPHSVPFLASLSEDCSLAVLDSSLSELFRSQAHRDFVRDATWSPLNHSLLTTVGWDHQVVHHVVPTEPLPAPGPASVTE
METTL1/WDR4, sequence (Q9UBP6 whole entry, species assumed): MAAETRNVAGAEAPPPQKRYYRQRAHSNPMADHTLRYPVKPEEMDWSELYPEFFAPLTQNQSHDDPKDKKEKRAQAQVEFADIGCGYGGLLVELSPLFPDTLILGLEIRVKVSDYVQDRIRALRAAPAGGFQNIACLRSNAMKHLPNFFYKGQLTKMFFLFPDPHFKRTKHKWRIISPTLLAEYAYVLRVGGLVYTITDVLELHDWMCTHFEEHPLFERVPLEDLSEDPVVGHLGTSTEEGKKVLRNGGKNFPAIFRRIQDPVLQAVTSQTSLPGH
METTL1/WDR4, sequence (P57081 whole entry partner, species assumed): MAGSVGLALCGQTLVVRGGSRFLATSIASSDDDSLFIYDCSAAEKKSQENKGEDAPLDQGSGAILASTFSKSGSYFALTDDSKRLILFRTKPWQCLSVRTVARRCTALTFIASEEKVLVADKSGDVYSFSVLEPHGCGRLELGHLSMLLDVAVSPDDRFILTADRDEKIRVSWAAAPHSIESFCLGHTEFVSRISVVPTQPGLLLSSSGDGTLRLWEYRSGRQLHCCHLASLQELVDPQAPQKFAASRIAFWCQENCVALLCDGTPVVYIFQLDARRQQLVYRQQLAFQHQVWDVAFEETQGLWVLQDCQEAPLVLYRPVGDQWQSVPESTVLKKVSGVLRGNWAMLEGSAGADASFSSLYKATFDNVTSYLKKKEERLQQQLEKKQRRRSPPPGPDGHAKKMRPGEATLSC
METTL3/METTL14, sequence (Q86U44 whole entry, species assumed): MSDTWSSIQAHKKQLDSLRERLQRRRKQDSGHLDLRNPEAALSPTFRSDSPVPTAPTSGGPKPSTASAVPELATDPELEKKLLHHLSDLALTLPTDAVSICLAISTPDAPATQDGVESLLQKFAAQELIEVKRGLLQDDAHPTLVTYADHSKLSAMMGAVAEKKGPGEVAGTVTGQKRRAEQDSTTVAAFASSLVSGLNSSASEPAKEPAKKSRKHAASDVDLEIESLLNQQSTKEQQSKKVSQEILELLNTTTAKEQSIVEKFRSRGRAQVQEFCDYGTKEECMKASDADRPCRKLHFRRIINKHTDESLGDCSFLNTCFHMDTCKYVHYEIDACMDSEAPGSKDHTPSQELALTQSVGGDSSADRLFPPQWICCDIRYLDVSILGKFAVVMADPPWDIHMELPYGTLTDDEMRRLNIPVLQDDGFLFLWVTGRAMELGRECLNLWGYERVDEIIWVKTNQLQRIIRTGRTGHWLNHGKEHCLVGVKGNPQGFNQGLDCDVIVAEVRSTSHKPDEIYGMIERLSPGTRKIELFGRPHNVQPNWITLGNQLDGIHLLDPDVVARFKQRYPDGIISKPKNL
METTL3/METTL14, sequence (Q9HCE5 whole entry partner, species assumed): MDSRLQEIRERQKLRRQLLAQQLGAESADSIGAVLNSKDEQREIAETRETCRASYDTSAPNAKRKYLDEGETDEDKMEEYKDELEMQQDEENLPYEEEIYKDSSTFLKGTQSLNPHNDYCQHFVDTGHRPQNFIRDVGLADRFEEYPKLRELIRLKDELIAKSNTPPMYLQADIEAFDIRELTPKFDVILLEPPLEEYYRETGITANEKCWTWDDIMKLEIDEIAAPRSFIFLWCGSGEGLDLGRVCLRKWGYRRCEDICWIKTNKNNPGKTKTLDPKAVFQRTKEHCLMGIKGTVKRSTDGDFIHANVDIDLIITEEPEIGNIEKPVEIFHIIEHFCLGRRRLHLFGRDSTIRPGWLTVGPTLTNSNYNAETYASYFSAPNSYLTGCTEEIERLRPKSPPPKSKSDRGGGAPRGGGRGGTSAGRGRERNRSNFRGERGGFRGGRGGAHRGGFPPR

The term IC50 denotes the concentration at which inhibition is half-maximal. Regarding `CNc1ccc2ccc(OCc3cncc(-n4cc(-c5ccc(C)o5)c5c(N)ncnc54)c3)cc2n1` [Compound I-234], the IC50 in assay [1] is more than 1000 nM; in assay [2], less than 10 nM; in assay [3] (setting [5]) it was more than 1000 nM; in assay [4] it was more than 1000 nM.
In the case of `CCc1cc(NCCCN(C)C)c2ccc(CCc3cncc(-n4ccc5c(N)ncnc54)c3)cc2n1` [Compound I-127], the concentration for half-maximal inhibition (IC50) in assay [1] is more than 1000 nM; in assay [2], less than 10 nM; in assay [3] (setting [5]), more than 1000 nM; in assay [4], more than 1000 nM.
Turning to `Nc1ncnc2c1c(C1CCCO1)cn2-c1cncc(CCc2ccc3ccc(N4CCC4)nc3c2)c1` (stereo not drawn) [Compound I-126], the IC50 in assay [1] was more than 1000 nM; in assay [2] it was less than 10 nM; in assay [3] (setting [5]), more than 1000 nM; in assay [4] it was more than 1000 nM.
As for `CCc1cc(NC)c2ccc(CCc3cncc(-n4cc(-c5ccn(C)n5)c5c(N)ncnc54)c3)cc2n1` [Compound I-122], the half-maximal inhibitory concentration (IC50) in assay [1] is more than 1000 nM; in assay [2] it was less than 10 nM; in assay [3] (setting [5]), more than 1000 nM; in assay [4], more than 1000 nM.
On to `CNc1ccc2ccc(OCc3cncc(-n4cc([C@H]5CCCO5)c5c(N)ncnc54)c3)cc2n1` [Compound I-112], for which the IC50 in assay [1] was more than 1000 nM; in assay [2], less than 10 nM; in assay [3] it was more than 1000 nM; in assay [4], more than 1000 nM.
For `CNc1ccc2ccc(OCc3cncc(-n4cc(CC5CC5)c5c(N)ncnc54)c3)cc2n1` [Compound I-29], the IC50 is more than 1000 nM in assay [1], less than 10 nM in assay [2], more than 1000 nM in assay [3] (setting [5]) and more than 1000 nM in assay [4].
For `CCc1cc(NCCOC)c2ccc(CCc3cncc(-n4cc(-c5ccn(C)n5)c5c(N)ncnc54)c3)cc2n1` [Compound I-115], the 50% inhibitory concentration (IC50) in assay [1] was more than 1000 nM; in assay [2] it was less than 10 nM; in assay [3] it was more than 1000 nM; in assay [4], more than 1000 nM.
With `CNc1ccc2ccc(OCc3cc(Br)cc(-n4cc(Cl)c5c(N)ncnc54)c3)cc2n1` [Compound I-75], the IC50 in assay [1] is more than 1000 nM; in assay [2], 100 to 1000 nM; in assay [3] (setting [5]), more than 1000 nM; in assay [4] it was more than 1000 nM.
As for `CNc1ccc2ccc(OCc3cncc(-n4cc(Cl)c5c(N)ncnc54)c3)cc2n1` [Compound I-74, 7-((5-(4-amino-5-chloro-7H-pyrrolo[2,3-d]pyrimidin-7-yl)pyridin-3-yl)methoxy)-N-methylquinolin-2-amine], the concentration for half-maximal inhibition (IC50) in assay [1] is more than 1000 nM; in assay [2], less than 10 nM; in assay [3] (setting [5]), more than 1000 nM; in assay [4], more than 1000 nM.
In the case of `CNc1ccc2cc(CCc3cccc(-n4cc(Cl)c5c(N)ncnc54)c3)ccc2n1` [Compound I-70], the IC50 is more than 1000 nM in assay [1], 100 to 1000 nM in assay [2], more than 1000 nM in assay [3] (setting [5]) and more than 1000 nM in assay [4].
As for `CNc1ccc2ccc(OCc3cncc(-n4cc(-c5ccnn5C)c5c(N)ncnc54)c3)cc2n1` [Compound I-35], the IC50 in assay [1] was more than 1000 nM; in assay [2] it was less than 10 nM; in assay [3] (setting [5]), more than 1000 nM; in assay [4], more than 1000 nM.
Consider `CNc1ccc2ccc(OCc3cncc(-n4cc([C@@H]5CCCO5)c5c(N)ncnc54)c3)cc2n1` [Compound I-113], for which the IC50 is more than 1000 nM in assay [1], less than 10 nM in assay [2], more than 1000 nM in assay [3] and more than 1000 nM in assay [4].
`CNc1ccc2ccc(OCc3cncc(-n4cc(C5CCCC5)c5c(N)ncnc54)c3)cc2n1` [Compound I-58]: the IC50 in assay [1] is more than 1000 nM; in assay [2] it was less than 10 nM; in assay [4] it was more than 1000 nM.
Turning to `CNc1ccc2ccc(OCc3cncc(-n4cc(C(C)C5CC5)c5c(N)ncnc54)c3)cc2n1` (stereo not drawn) [Compound I-120], the half-maximal inhibitory concentration (IC50) in assay [1] is more than 1000 nM; in assay [2] it was less than 10 nM; in assay [3] (setting [5]), more than 1000 nM; in assay [4], more than 1000 nM.
On to `Cn1ccc(-c2cn(-c3cncc(CCc4ccc5cc(Br)c(N)nc5c4)c3)c3ncnc(N)c23)n1` [Compound I-123], for which the IC50 in assay [1], in assay [2], in assay [3] (setting [5]) and in assay [4] was more than 1000 nM in each case.
`CNc1ccc2ccc(OCc3cccc(-n4cc(Cl)c5c(N)ncnc54)c3)cc2n1` [Compound I-87]: the IC50 in assay [1] is more than 1000 nM; in assay [2], 10 to 100 nM; in assay [3] (setting [5]), more than 1000 nM; in assay [4] it was more than 1000 nM.
As for `CCc1cc(N2CCC(F)(F)CC2)c2ccc(OCc3cncc(-n4ccc5c(N)ncnc54)c3)cc2n1` [Compound I-118], the half-maximal inhibitory concentration (IC50) in assay [1] was more than 1000 nM; in assay [2] it was less than 10 nM; in assay [3] (setting [5]), more than 1000 nM; in assay [4] it was more than 1000 nM.
Regarding `CCNc1ccc2ccc(OCc3cncc(-n4cc(-c5ccn(C)n5)c5c(N)ncnc54)c3)cc2n1` [Compound I-128], the IC50 in assay [1] was more than 1000 nM; in assay [2], less than 10 nM; in assay [3] (setting [5]) it was more than 1000 nM; in assay [4], more than 1000 nM.
As to `CNc1ccc2ccc(CCc3cncc(-n4ccc5c(N)ncnc54)c3)cc2n1` [Compound I-30], the IC50 in assay [1] was more than 1000 nM; in assay [2], 10 to 100 nM; in assay [3] (setting [5]) it was more than 1000 nM; in assay [4] it was more than 1000 nM.
Regarding `Nc1nc2cc(OCc3cncc(-n4ccc5c(N)ncnc54)c3)ccc2cc1Br` [Compound I-111], the IC50 in assay [1], in assay [2], in assay [3] (setting [5]) and in assay [4] was more than 1000 nM throughout.
Regarding `CNc1ccc2ccc(CCc3cncc(-n4cc(F)c5c(N)ncnc54)c3)cc2n1` [Compound I-116], the half-maximal inhibitory concentration (IC50) was more than 1000 nM in assay [1], less than 10 nM in assay [2], more than 1000 nM in assay [3] (setting [5]) and more than 1000 nM in assay [4].
In the case of `CNc1ccc2ccc(OCc3cncc(-n4cc(-c5ncco5)c5c(N)ncnc54)c3)cc2n1` [Compound I-235], the concentration for half-maximal inhibition (IC50) in assay [1] was more than 1000 nM; in assay [2] it was less than 10 nM; in assay [3] (setting [5]), more than 1000 nM; in assay [4], more than 1000 nM.
With `CCc1cc(N(C)CCOC)c2ccc(CCc3cncc(-n4cc(-c5ccn(C)n5)c5c(N)ncnc54)c3)cc2n1` [Compound I-117], the half-maximal inhibitory concentration (IC50) in assay [1] was more than 1000 nM; in assay [2], less than 10 nM; in assay [3], more than 1000 nM; in assay [4] it was more than 1000 nM.
On to `Cn1ccc(-c2cn(-c3cncc(CCc4ccc5ccc(N)nc5c4)c3)c3ncnc(N)c23)n1` [Compound I-114], for which the IC50 is more than 1000 nM in assay [1], less than 10 nM in assay [2], more than 1000 nM in assay [3] (setting [5]) and more than 1000 nM in assay [4].
Take `C[C@@H]1CCN1c1ccc2ccc(OCc3cncc(-n4cc(C5CCCC5)c5c(N)ncnc54)c3)cc2n1` [Compound I-124]: the IC50 was more than 1000 nM in assay [1], 10 to 100 nM in assay [2], more than 1000 nM in assay [3] (setting [5]) and more than 1000 nM in assay [4].
Regarding `CCc1cc(N2CCNCC2)c2ccc(OCc3cncc(-n4cc(-c5ccn(C)n5)c5c(N)ncnc54)c3)cc2n1` [Compound I-121], the IC50 in assay [1] is more than 1000 nM; in assay [2], less than 10 nM; in assay [3] (setting [5]) it was more than 1000 nM; in assay [4] it was more than 1000 nM.
Take `CCNc1ccc2ccc(OCc3cccc(-n4cc(Cl)c5c(N)ncnc54)c3)cc2n1` [Compound I-61]: the IC50 in assay [1] is more than 1000 nM; in assay [2], 10 to 100 nM; in assay [3] (setting [5]), more than 1000 nM; in assay [4], more than 1000 nM.
Consider `CNc1ccc2ccc(OCc3cncc(-n4c(C)cc5c(N)ncnc54)c3)cc2n1` [Compound I-36], for which the IC50 was more than 1000 nM in assay [1], 10 to 100 nM in assay [2], more than 1000 nM in assay [3] (setting [5]) and more than 1000 nM in assay [4].

These data come from patent publication US20220372040A1, “METTL3 MODULATORS” (Accent Therapeutics, Inc., priority 2020, published 2022).
